# Calls of active or inactive are those of the source. No cut-off for these calls is given here.
# What was measured:
# [1] = system: Streptomyces acidiscabies; assay: Antimicrobial activity against Streptomyces acidiscabies ATCC 4900315 assessed as inhibition of aerial mycelial growth at 0.4 ug/disk after 5 days by paper disk method; format: functional; conditions: for zone of inhibition at 0.4 µg/disc: ATCC 4900315, 120 h, read-out: DIZ
# Streptomyces scabiei [2] = assay: Antimicrobial activity against Streptomyces scabiei ATCC 4917314 assessed as inhibition of aerial mycelial growth at 4 ug/disk after 5 days by paper disk method; format: functional; conditions: for zone of inhibition at 4 µg/disc: ATCC 4917314, 120 h, read-out: DIZ
# [3] = system: Streptomyces acidiscabies; assay: Antimicrobial activity against Streptomyces acidiscabies ATCC 4900315 assessed as inhibition of aerial mycelial growth at 0.04 ug/disk after 5 days by paper disk method; format: functional
# Streptomyces alboniger [4] = assay: Antimicrobial activity against Streptomyces alboniger IFO 12738 assessed as inhibition of aerial mycelial growth at 4 ug/disk after 5 days by paper disk method; format: functional
# [5] = system: Streptomyces acidiscabies; assay: Antimicrobial activity against Streptomyces acidiscabies ATCC 4900315 assessed as inhibition of aerial mycelial growth at 4 ug/disk after 5 days by paper disk method; format: functional; conditions: for zone of inhibition at 4 µg/disc: ATCC 4900315, 120 h, read-out: DIZ
# Streptomyces scabiei [6] = assay: Antimicrobial activity against Streptomyces scabiei ATCC 4917314 assessed as inhibition of aerial mycelial growth at 0.40 ug/disk after 5 days by paper disk method; format: functional; conditions: for zone of inhibition at 0.4 µg/disc: ATCC 4917314, 120 h, read-out: DIZ
# Streptomyces scabiei [7] = assay: Growth stimulation of Streptomyces scabiei ATCC 4917314 at 4 ug/disk after 5 days by paper disk method; format: functional
# Streptomyces scabiei [8] = assay: Antimicrobial activity against Streptomyces scabiei ATCC 4917314 assessed as inhibition of aerial mycelial growth at 0.04 ug/disk after 5 days by paper disk method; format: functional; conditions: for zone of inhibition at 0.04 µg/disc: ATCC 4917314, 120 h, read-out: DIZ
# Streptomyces alboniger [9] = assay: Antimicrobial activity against Streptomyces alboniger IFO 12738 assessed as inhibition of aerial mycelial growth at 0.4 ug/disk after 5 days by paper disk method; format: functional
# Streptomyces alboniger [10] = assay: Antimicrobial activity against Streptomyces alboniger IFO 12738 assessed as inhibition of aerial mycelial growth at 0.04 ug/disk after 5 days by paper disk method; format: functional, organism-based
# Streptomyces scabiei [11] = assay: Reduction in thaxtomin A production in Streptomyces scabiei ATCC 4917314 at 1.2 ug/ml after 5 days relative to untreated control; format: functional; set-up: scale not given: the % may be the effect or the level left
# [12] = system: Streptomyces acidiscabies; assay: Reduction in concanamycins A and B production in Streptomyces acidiscabies ATCC 4900315 at 1.5 ug/ml after 5 days relative to untreated control; format: functional, organism-based
# Streptomyces scabiei [13] = assay: Reduction in concanamycins A and B production in Streptomyces scabiei ATCC 4917314 at 1.2 ug/ml after 5 days relative to untreated control; format: functional; set-up: scale not given: the % may be the effect or the level left
# [14] = system: Streptomyces acidiscabies; assay: Antimicrobial activity against Streptomyces acidiscabies ATCC 4900315 assessed as inhibition of growth at 4 ug/disk after 5 days by paper disk method; format: functional; conditions: ATCC 4900315, 120 h, read-out: DIZ
# [15] = system: Streptomyces acidiscabies; assay: Antimicrobial activity against Streptomyces acidiscabies ATCC 4900315 assessed as mycelial weigh change at 1.5 ug/ml after 5 days relative to untreated control; format: functional
# Streptomyces scabiei [16] = assay: Antimicrobial activity against Streptomyces scabiei ATCC 4917314 assessed as mycelial weigh change at 1.2 ug/ml after 5 days relative to untreated control; format: functional
# [17] = system: Streptomyces acidiscabies; assay: Reduction in thaxtomin A production in Streptomyces acidiscabies ATCC 4900315 at 1.5 ug/ml after 5 days relative to untreated control; format: functional; set-up: scale not given: the % may be the effect or the level left
# Streptomyces scabiei [18] = assay: Antimicrobial activity against Streptomyces scabiei ATCC 4917314 assessed as inhibition of growth at 4 ug/disk after 5 days by paper disk method; format: functional; conditions: ATCC 4917314, 120 h, read-out: DIZ
# Streptomyces scabiei [19] = assay: Growth stimulation of Streptomyces scabiei ATCC 4917314 at 0.4 ug/disk after 5 days by paper disk method; format: functional; conditions: ATCC 4917314, 120 h, read-out: DIZ
# Streptomyces alboniger [20] = assay: Antimicrobial activity against Streptomyces alboniger IFO 12738 assessed as inhibition of growth at 4 ug/disk after 5 days by paper disk method; format: functional; conditions: IFO 12738, 120 h, read-out: DIZ
# [21] = system: Streptomyces acidiscabies; assay: Antimicrobial activity against Streptomyces acidiscabies ATCC 4900315 assessed as inhibition of growth at 0.4 ug/disk after 5 days by paper disk method; format: functional; conditions: ATCC 4900315, 120 h, read-out: DIZ
# Streptomyces scabiei [22] = assay: Reduction in concanamycins A and B production in Streptomyces scabiei ATCC 4917314 at 3.6 ug/ml after 5 days relative to untreated control; format: functional; set-up: scale not given: the % may be the effect or the level left
# [23] = system: Streptomyces acidiscabies; assay: Antimicrobial activity against Streptomyces acidiscabies ATCC 4900315 assessed as mycelial weigh change at 0.45 ug/ml after 5 days relative to untreated control; format: functional
# Streptomyces scabiei [24] = assay: Antimicrobial activity against Streptomyces scabiei ATCC 4917314 assessed as inhibition of growth at 0.4 ug/disk after 5 days by paper disk method; format: functional
# Streptomyces scabiei [25] = assay: Antimicrobial activity against Streptomyces scabiei ATCC 4917314 assessed as mycelial weigh change at 3.6 ug/ml after 5 days relative to untreated control; format: functional
# [26] = system: Streptomyces acidiscabies; assay: Reduction in thaxtomin A production in Streptomyces acidiscabies ATCC 4900315 at 0.45 ug/ml after 5 days relative to untreated control; format: functional; set-up: scale not given: the % may be the effect or the level left
# Streptomyces scabiei [27] = assay: Reduction in thaxtomin A production in Streptomyces scabiei ATCC 4917314 at 3.6 ug/ml after 5 days relative to untreated control; format: functional; set-up: scale not given: the % may be the effect or the level left
# [28] = system: Streptomyces acidiscabies; assay: Reduction in concanamycins A and B production in Streptomyces acidiscabies ATCC 4900315 at 0.45 ug/ml after 5 days relative to untreated control; format: functional, organism-based
SMILES,diameter of the inhibition zone (DIZ) [1],diameter of the inhibition zone (DIZ) (Streptomyces scabiei [2]),diameter of the inhibition zone (DIZ) [3],diameter of the inhibition zone (DIZ) (Streptomyces alboniger [4]),zone of inhibition at 4 µg/disc [5] [mm],diameter of the inhibition zone (DIZ) (Streptomyces scabiei [6]),diameter of the inhibition zone (DIZ) (Streptomyces scabiei [8]),diameter of the inhibition zone (DIZ) (Streptomyces alboniger [9]),diameter of the inhibition zone (DIZ) (Streptomyces alboniger [10]),zone of inhibition at 0.4 µg/disc [1] [mm],zone of inhibition at 4 µg/disc (Streptomyces scabiei [2]) [mm],zone of inhibition at 4 µg/disc [14] [mm],zone of inhibition at 0.4 µg/disc (Streptomyces scabiei [6]) [mm],zone of inhibition at 0.04 µg/disc (Streptomyces scabiei [8]) [mm],zone of inhibition at 4 µg/disc (Streptomyces scabiei [18]) [mm],diameter of the inhibition zone (DIZ) [5],also measured
CO/N=C(\C(=O)N[C@@H]1C(=O)N2C(C(=O)O)=C(COC(C)=O)CS[C@H]12)c1csc(N)n1 [CEFOTAXIME],inactive,inactive,inactive,inactive,15,inactive,inactive,inactive,inactive,–,–,–,–,–,–,–,"zone of inhibition at 4 µg/disc (Streptomyces scabiei [7]; Streptomyces scabiei, ATCC 4917314, 120 h, read-out: DIZ): 22 mm"
CN(C)[C@@H]1C(O)=C(C(N)=O)C(=O)[C@@]2(O)C(O)=C3C(=O)c4c(O)ccc(Cl)c4[C@@](C)(O)[C@H]3C[C@@H]12 [CHLORTETRACYCLINE],–,–,–,inactive,35,–,–,inactive,inactive,19,27,16,20,11,19,–,"Activity (Streptomyces scabiei [11]): 0.6%; zone of inhibition at 0.04 µg/disc ([3]; ATCC 4900315, 120 h, read-out: DIZ): 11 mm; Activity [12]: Below limit of detection; Activity (Streptomyces scabiei [13]): 0.1%; Activity [15]: 6.8%; Activity (Streptomyces scabiei [16]): 2.1%; Activity [17]: <10%"
N[C@@H]1CONC1=O [CYCLOSERINE],inactive,inactive,inactive,inactive,–,inactive,inactive,inactive,inactive,–,–,–,–,–,–,inactive,zone of inhibition at 0.4 µg/disc (Streptomyces scabiei [19]): 24 mm; Activity (Streptomyces scabiei [7]): 44 mm
NC[C@H]1O[C@H](O[C@H]2[C@H](O)[C@@H](O[C@H]3O[C@H](CO)[C@@H](O)[C@H](N)[C@H]3O)[C@H](N)C[C@@H]2N)[C@H](O)[C@@H](O)[C@@H]1O [KANAMYCIN],inactive,–,inactive,inactive,–,–,inactive,inactive,inactive,–,18,18,10,–,13,inactive,zone of inhibition at 4 µg/disc (Streptomyces alboniger [20]): 14 mm; zone of inhibition at 0.4 µg/disc [21]: 12 mm
CN[C@@H]1[C@H](O)[C@H](NC)[C@H]2O[C@@]3(O)C(=O)C[C@@H](C)O[C@H]3O[C@@H]2[C@H]1O [SPECTINOMYCIN],–,–,inactive,–,31,–,–,inactive,inactive,20,19,–,11,27,–,–,"Activity (Streptomyces scabiei [22]): 1.1%; Activity [23]: 8.31%; zone of inhibition at 4 µg/disc (Streptomyces alboniger [4]; IFO 12738, 120 h, read-out: DIZ): 35 mm; diameter of the inhibition zone (DIZ) (Streptomyces scabiei [24]): inactive; Activity (Streptomyces scabiei [25]): 5.01%; Activity [26]: 59%; Activity (Streptomyces scabiei [27]): 0.8%; Activity [28]: Below limit of detection"
